Holding throughout (experiment): Kinase panel study
Type in all cases: biochemical
Conditions in all cases: read-out: Percentage of inhibition; for inhibition at 1 µM: 1000nM; for inhibition at 10 µM: 10000nM

In one experiment the target is T1, HIPK4 (Homo sapiens, UniProt Q8NE63).
T1 construct: purchased Thermo Fisher Scientific
T1 sequence (Q8NE63 1-616): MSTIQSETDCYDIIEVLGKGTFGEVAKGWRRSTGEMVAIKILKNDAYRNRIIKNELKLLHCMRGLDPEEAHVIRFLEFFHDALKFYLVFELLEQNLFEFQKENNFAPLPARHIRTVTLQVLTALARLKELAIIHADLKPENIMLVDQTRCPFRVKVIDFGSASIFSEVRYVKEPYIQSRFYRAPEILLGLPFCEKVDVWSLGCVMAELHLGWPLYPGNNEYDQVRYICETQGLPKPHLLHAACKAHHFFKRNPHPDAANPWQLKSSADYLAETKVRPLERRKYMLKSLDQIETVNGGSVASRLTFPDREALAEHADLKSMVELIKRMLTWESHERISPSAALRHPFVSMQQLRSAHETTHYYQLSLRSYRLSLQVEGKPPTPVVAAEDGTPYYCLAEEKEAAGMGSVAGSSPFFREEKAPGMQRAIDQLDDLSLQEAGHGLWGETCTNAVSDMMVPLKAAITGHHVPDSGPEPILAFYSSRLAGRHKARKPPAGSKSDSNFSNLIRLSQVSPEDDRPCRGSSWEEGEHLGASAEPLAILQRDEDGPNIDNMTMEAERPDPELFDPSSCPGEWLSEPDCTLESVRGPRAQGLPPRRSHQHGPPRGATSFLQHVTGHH
Summed up:
(§1)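 In vitro, kinase panel; ZLyte or Adapta SOP; single-concentration testing (1 or 10 µM); output = % inhibition, plus IC50 in panel.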

A further experiment addresses T2, PHKG2 (Homo sapiens, UniProt P15735).
T2 construct: purchased Thermo Fisher Scientific
T2 sequence (P15735 1-406): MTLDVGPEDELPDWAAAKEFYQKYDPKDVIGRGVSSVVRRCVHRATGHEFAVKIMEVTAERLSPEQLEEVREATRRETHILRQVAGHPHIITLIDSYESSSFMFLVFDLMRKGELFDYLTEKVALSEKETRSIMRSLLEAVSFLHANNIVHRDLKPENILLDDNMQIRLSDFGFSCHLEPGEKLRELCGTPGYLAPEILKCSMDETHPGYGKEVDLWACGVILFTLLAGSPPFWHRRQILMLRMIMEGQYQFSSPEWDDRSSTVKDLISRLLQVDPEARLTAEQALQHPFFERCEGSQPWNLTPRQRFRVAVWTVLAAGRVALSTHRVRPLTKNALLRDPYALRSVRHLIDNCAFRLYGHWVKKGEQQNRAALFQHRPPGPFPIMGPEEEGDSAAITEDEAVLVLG
Summed up: as §1

The target in a further experiment is T3, PRKCB1 (PKC beta I) (Homo sapiens, UniProt P05771).
T3 construct: purchased Thermo Fisher Scientific
Summed up:
as §1

The next experiment concerns the target T4, PRKCQ (PKC theta) (Homo sapiens, UniProt Q04759).
T4 construct: purchased Thermo Fisher Scientific
Summed up: as §1

In a further experiment the target is T5, STK25 (YSK1) (Homo sapiens, UniProt O00506).
T5 construct: purchased Thermo Fisher Scientific
The essentials: as §1

2 compounds from patent publication EP4467141A1, “PYRAZOLO-QUINOLINES AS SELECTIVE INHIBITORS OF GENOTOXIC STRESS-INDUCED IKK/NF- KB PATHWAYS FOR CANCER THERAPY” (Max-Delbrück-Centrum für Molekulare Medizin in der …, priority 2023, dated 2024) can be followed below.

T3 sequence (P05771 whole entry): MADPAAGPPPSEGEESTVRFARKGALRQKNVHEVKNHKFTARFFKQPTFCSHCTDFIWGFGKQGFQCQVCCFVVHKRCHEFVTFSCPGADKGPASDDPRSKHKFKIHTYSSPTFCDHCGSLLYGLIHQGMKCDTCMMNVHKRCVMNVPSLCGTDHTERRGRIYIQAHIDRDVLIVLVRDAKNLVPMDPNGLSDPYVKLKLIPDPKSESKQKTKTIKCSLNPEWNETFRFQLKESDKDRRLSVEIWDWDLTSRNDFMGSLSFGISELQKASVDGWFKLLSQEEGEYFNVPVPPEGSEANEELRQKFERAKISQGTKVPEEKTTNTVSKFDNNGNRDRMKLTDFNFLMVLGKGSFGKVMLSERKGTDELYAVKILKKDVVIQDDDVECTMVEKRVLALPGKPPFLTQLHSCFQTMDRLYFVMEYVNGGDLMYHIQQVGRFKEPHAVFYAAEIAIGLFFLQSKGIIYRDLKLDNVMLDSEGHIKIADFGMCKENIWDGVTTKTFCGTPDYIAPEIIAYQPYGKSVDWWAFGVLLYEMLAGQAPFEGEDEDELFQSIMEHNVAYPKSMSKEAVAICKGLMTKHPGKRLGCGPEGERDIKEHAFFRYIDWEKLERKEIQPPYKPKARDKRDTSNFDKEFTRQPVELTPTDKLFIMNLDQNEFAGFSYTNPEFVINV
T4 sequence (Q04759 whole entry): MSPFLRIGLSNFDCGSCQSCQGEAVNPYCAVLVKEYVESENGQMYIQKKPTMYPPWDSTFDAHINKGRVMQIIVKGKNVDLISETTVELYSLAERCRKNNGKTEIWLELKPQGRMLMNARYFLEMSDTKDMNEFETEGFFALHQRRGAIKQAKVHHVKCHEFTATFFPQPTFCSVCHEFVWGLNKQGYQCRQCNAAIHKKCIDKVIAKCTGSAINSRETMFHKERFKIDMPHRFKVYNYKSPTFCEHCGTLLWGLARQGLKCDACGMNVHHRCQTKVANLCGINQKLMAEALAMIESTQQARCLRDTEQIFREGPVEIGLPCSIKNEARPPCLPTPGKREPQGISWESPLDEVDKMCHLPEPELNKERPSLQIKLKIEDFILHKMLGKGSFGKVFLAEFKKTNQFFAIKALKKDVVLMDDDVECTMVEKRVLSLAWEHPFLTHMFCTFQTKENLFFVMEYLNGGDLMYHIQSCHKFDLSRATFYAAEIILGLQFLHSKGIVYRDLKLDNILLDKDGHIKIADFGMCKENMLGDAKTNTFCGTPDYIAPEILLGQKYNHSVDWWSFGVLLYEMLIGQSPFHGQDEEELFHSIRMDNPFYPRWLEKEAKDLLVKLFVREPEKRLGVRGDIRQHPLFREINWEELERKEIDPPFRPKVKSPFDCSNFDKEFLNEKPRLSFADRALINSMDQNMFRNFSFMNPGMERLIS
T5 sequence (O00506 whole entry): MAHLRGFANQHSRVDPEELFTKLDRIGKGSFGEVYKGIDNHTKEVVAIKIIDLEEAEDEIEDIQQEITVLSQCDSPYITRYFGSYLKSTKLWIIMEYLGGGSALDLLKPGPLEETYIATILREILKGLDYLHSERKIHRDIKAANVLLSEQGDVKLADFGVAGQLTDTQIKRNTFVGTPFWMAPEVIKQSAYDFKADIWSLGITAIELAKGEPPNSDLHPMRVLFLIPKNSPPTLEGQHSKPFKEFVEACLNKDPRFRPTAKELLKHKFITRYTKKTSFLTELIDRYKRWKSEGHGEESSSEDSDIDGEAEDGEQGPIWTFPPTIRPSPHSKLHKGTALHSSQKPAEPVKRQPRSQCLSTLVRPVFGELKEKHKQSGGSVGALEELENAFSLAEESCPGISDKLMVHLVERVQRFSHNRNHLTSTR

For orientation: inhibition means the drop in the measured response relative to a control, in per cent. `COc1ccc2c(c1OC)c(=O)n1c3ccc(O)cc3c3ccnc2c31` [MW01, 5-Hydroxy-10,11-dimethoxy-9H-benzo[c]indolo[3,2,1-ij][1,5]naphthyridin-9-one]: the inhibition at 1 µM on HIPK4 is 42%; on PHKG2 it was 6%; on PRKCB1 (PKC beta I), 1%; on PRKCQ (PKC theta), 4%; on STK25 (YSK1), -9%. For the same compound, the inhibition at 10 µM is 62% at HIPK4; 8% on PHKG2; -17% at PRKCB1 (PKC beta I); 21% at PRKCQ (PKC theta); -3% on STK25 (YSK1).
Regarding `COc1ccc2cc3c(N)nn(C(=O)c4cccc(N(C)C)c4)c3nc2c1` [MW05, (3-Amino-7-methoxypyrazolo[3,4-b]quinolin-1-yl)-[3-(dimethylamino)phenyl]methanone], the inhibition at 1 µM on HIPK4 is 12%; at PHKG2 it was 6%; on PRKCB1 (PKC beta I) it was 5%; at PRKCQ (PKC theta) it was 2%; on STK25 (YSK1) it was -3%. The inhibition at 10 µM on HIPK4 is 8%; on PHKG2 it was -3%; on PRKCB1 (PKC beta I), -7%; at PRKCQ (PKC theta), -15%; on STK25 (YSK1), -11%.
